Results from ChEMBL document CHEMBL3044870, “Effect of clomazone on various market classes of dry beans” (Crop Prot, 2007).

Columns and labels:
Format in all cases: organism-based
Settings in all cases: in vivo, other
[1] = test system: Phaseolus vulgaris; assay: Phytotoxicity against Phaseolus vulgaris (otebo beans) assessed as visual crop injury at 2232 g a.i./ha applied pre-emergence 1 to 2 days post-planting measured on day 14 post-emergence relative to control
[2] = test system: Phaseolus vulgaris; assay: Phytotoxicity against Phaseolus vulgaris (cranberry beans) assessed as visual crop injury at 2232 g a.i./ha applied pre-emergence 1 to 2 days post-planting measured on day 14 post-emergence relative to control
[3] = test system: Phaseolus vulgaris; assay: Phytotoxicity against Phaseolus vulgaris (cranberry beans) assessed as visual crop injury at 1116 g a.i./ha applied pre-emergence 1 to 2 days post-planting measured on day 14 post-emergence relative to control
[4] = test system: Phaseolus vulgaris; assay: Phytotoxicity against Phaseolus vulgaris (brown beans) assessed as visual crop injury at 2232 g a.i./ha applied pre-emergence 1 to 2 days post-planting measured on day 14 post-emergence relative to control
[5] = test system: Phaseolus vulgaris; assay: Phytotoxicity against Phaseolus vulgaris (dry beans) assessed as visual crop injury at 2232 g a.i./ha applied pre-emergence 1 to 2 days post-planting measured on day 7 post-emergence relative to control
[6] = test system: Phaseolus vulgaris; assay: Phytotoxicity against Phaseolus vulgaris (white beans) assessed as visual crop injury at 2232 g a.i./ha applied pre-emergence 1 to 2 days post-planting measured on day 14 post-emergence relative to control
[7] = test system: Phaseolus vulgaris; assay: Phytotoxicity against Phaseolus vulgaris (dry beans) assessed as visual crop injury at 1116 g a.i./ha applied pre-emergence 1 to 2 days post-planting measured on day 28 post-emergence relative to control
[8] = test system: Phaseolus vulgaris; assay: Phytotoxicity against Phaseolus vulgaris (dry beans) assessed as visual crop injury at 1116 g a.i./ha applied pre-emergence 1 to 2 days post-planting measured on day 14 post-emergence relative to control
[9] = test system: Phaseolus vulgaris; assay: Phytotoxicity against Phaseolus vulgaris (dry beans) assessed as change in seed moisture content at 1116 to 2232 g a.i./ha applied pre-emergence 1 to 2 days post-planting relative to control
[10] = test system: Phaseolus vulgaris; assay: Phytotoxicity against Phaseolus vulgaris (yellow eye beans) assessed as yield at 2232 g a.i./ha applied pre-emergence 1 to 2 days post-planting measured on day 42 post-emergence (reference value: 2.3 tons/ha)
[11] = test system: Phaseolus vulgaris; assay: Phytotoxicity against Phaseolus vulgaris (yellow eye beans) assessed as yield at 1116 g a.i./ha applied pre-emergence 1 to 2 days post-planting measured on day 42 post-emergence (reference value: 2.3 tons/ha)
[12] = test system: Phaseolus vulgaris; assay: Phytotoxicity against Phaseolus vulgaris (white beans) assessed as yield at 2232 g a.i./ha applied pre-emergence 1 to 2 days post-planting measured on day 42 post-emergence (reference value: 3 tons/ha)
[13] = test system: Phaseolus vulgaris; assay: Phytotoxicity against Phaseolus vulgaris (white beans) assessed as yield at 1116 g a.i./ha applied pre-emergence 1 to 2 days post-planting measured on day 42 post-emergence (reference value: 3 tons/ha)
[14] = test system: Phaseolus vulgaris; assay: Phytotoxicity against Phaseolus vulgaris (pinto beans) assessed as yield at 2232 g a.i./ha applied pre-emergence 1 to 2 days post-planting measured on day 42 post-emergence (reference value: 3.1 tons/ha)
[15] = test system: Phaseolus vulgaris; assay: Phytotoxicity against Phaseolus vulgaris (otebo beans) assessed as yield at 1116 g a.i./ha applied pre-emergence 1 to 2 days post-planting measured on day 42 post-emergence (reference value: 3.4 tons/ha)
[16] = test system: Phaseolus vulgaris; assay: Phytotoxicity against Phaseolus vulgaris (kidney beans) assessed as yield at 2232 g a.i./ha applied pre-emergence 1 to 2 days post-planting measured on day 42 post-emergence (reference value: 2.3 tons/ha)
[17] = test system: Phaseolus vulgaris; assay: Phytotoxicity against Phaseolus vulgaris (white beans) assessed as shoot dry weight at 1116 g a.i./ha applied pre-emergence 1 to 2 days post-planting measured on day 42 post-emergence (reference value: 175 g/m)
[18] = test system: Phaseolus vulgaris; assay: Phytotoxicity against Phaseolus vulgaris (otebo beans) assessed as shoot dry weight at 1116 g a.i./ha applied pre-emergence 1 to 2 days post-planting measured on day 42 post-emergence (reference value: 188 g/m)
[19] = test system: Phaseolus vulgaris; assay: Phytotoxicity against Phaseolus vulgaris (kidney beans) assessed as shoot dry weight at 2232 g a.i./ha applied pre-emergence 1 to 2 days post-planting measured on day 42 post-emergence (reference value: 145 g/m)
[20] = test system: Phaseolus vulgaris; assay: Phytotoxicity against Phaseolus vulgaris (kidney beans) assessed as shoot dry weight at 1116 g a.i./ha applied pre-emergence 1 to 2 days post-planting measured on day 42 post-emergence (reference value: 145 g/m)
[21] = test system: Phaseolus vulgaris; assay: Phytotoxicity against Phaseolus vulgaris (black beans) assessed as shoot dry weight at 1116 g a.i./ha applied pre-emergence 1 to 2 days post-planting measured on day 42 post-emergence (reference value: 165 g/m)
[22] = test system: Phaseolus vulgaris; assay: Phytotoxicity against Phaseolus vulgaris (yellow eye beans) assessed as plant height at 2232 g a.i./ha applied pre-emergence 1 to 2 days post-planting measured on day 28 post-emergence (reference value: 38 cm)
[23] = test system: Phaseolus vulgaris; assay: Phytotoxicity against Phaseolus vulgaris (white beans) assessed as plant height at 2232 g a.i./ha applied pre-emergence 1 to 2 days post-planting measured on day 28 post-emergence (reference value: 36 cm)
[24] = test system: Phaseolus vulgaris; assay: Phytotoxicity against Phaseolus vulgaris (pinto beans) assessed as plant height at 2232 g a.i./ha applied pre-emergence 1 to 2 days post-planting measured on day 28 post-emergence (reference value: 38 cm)
[25] = test system: Phaseolus vulgaris; assay: Phytotoxicity against Phaseolus vulgaris (pinto beans) assessed as plant height at 1116 g a.i./ha applied pre-emergence 1 to 2 days post-planting measured on day 28 post-emergence (reference value: 38 cm)
[26] = test system: Phaseolus vulgaris; assay: Phytotoxicity against Phaseolus vulgaris (otebo beans) assessed as plant height at 1116 g a.i./ha applied pre-emergence 1 to 2 days post-planting measured on day 28 post-emergence (reference value: 38 cm)
[27] = test system: Phaseolus vulgaris; assay: Phytotoxicity against Phaseolus vulgaris (kidney beans) assessed as plant height at 2232 g a.i./ha applied pre-emergence 1 to 2 days post-planting measured on day 28 post-emergence (reference value: 37 cm)
[28] = test system: Phaseolus vulgaris; assay: Phytotoxicity against Phaseolus vulgaris (kidney beans) assessed as plant height at 1116 g a.i./ha applied pre-emergence 1 to 2 days post-planting measured on day 28 post-emergence (reference value: 37 cm)
[29] = test system: Phaseolus vulgaris; assay: Phytotoxicity against Phaseolus vulgaris (cranberry beans) assessed as plant height at 2232 g a.i./ha applied pre-emergence 1 to 2 days post-planting measured on day 28 post-emergence (reference value: 37 cm)
[30] = test system: Phaseolus vulgaris; assay: Phytotoxicity against Phaseolus vulgaris (cranberry beans) assessed as plant height at 1116 g a.i./ha applied pre-emergence 1 to 2 days post-planting measured on day 28 post-emergence (reference value: 37 cm)
[31] = test system: Phaseolus vulgaris; assay: Phytotoxicity against Phaseolus vulgaris (brown beans) assessed as plant height at 1116 g a.i./ha applied pre-emergence 1 to 2 days post-planting measured on day 28 post-emergence (reference value: 37 cm)
[32] = test system: Phaseolus vulgaris; assay: Phytotoxicity against Phaseolus vulgaris (yellow eye beans) assessed as visual crop injury at 2232 g a.i./ha applied pre-emergence 1 to 2 days post-planting measured on day 14 post-emergence relative to control

CC1(C)CON(Cc2ccccc2Cl)C1=O [CLOMAZONE]
Activity [1]: 11%
Activity [2]: 14%
Activity [3]: 6%
Activity [4]: 8%
Activity [5]: 11%
Activity [6]: 6%
Activity [7]: 1%
Activity [8]: 4%
Activity [9]: Non-toxic
Crop_yield [10]: 2.5 tons/ha
Crop_yield [11]: 2.6 tons/ha
Crop_yield [12]: 3.2 tons/ha
Crop_yield [13]: 3.1 tons/ha
Crop_yield [14]: 3 tons/ha
Crop_yield [15]: 3.4 tons/ha
Crop_yield [16]: 2.3 tons/ha
Activity [17]: 174 g/m
Activity [18]: 189 g/m
Activity [19]: 116 g/m
Activity [20]: 142 g/m
Activity [21]: 167 g/m
Activity [22]: 32 cm
Activity [23]: 32 cm
Activity [24]: 32 cm
Activity [25]: 36 cm
Activity [26]: 37 cm
Activity [27]: 33 cm
Activity [28]: 35 cm
Activity [29]: 32 cm
Activity [30]: 35 cm
Activity [31]: 35 cm
Activity [32]: 10%
